Several values for one entry are separate records, joined by “and”; a condition that tells them apart may be missing. Identical values can stand only once.
Tests used:
bean leaf (Vicia faba) = test: Uptake (stomatal infiltration) of ^14C-glyphosate isopropylamine salt into bean leaf; type: in vivo
Method: The impact of the TSA-1/TSA-2 blends on the uptake of ^14C-glyphosate (herbicide) solutions into bean leaf (Vicia fava) was determined at 10 minutes after application, according to the method described by Stevens et al., Contributions of stomatal infiltration and cuticular penetration to enhancements of foliar uptake by surfactants. […]. Sci., 33, 371-382, to establish the contribution of trisiloxane alkoxylate (TSA) surfactants on the speed of uptake, via stomatal infiltration). Here glyphosate solutions containing 0.4% TSA surfactant was applied to bean leaf using a micro-syringe. At 10 minutes after application, the leaf was washed with aqueous ethanol and uptake was determined by subtraction, using a scintillation counter to measure residual ^14C-glyphosate-IPA salt (Stevens et al. […]. Sci., 33, 371-382). The uptake by stomatal infiltration of ^14C-glyphosate-isopropyl amine salt into bean-leaf (Vicia faba) at 10 minutes after application was determined as outlined in Example 4.

[1] = Dynamic surface tension (Kruss Maximum Bubble Pressure tensiometer); type: physicochemical; details: 0.4 wt % in deionized water
Method: Dynamic surface tension (DST) was measured using a Kruss Maximum Bubble Pressure tensiometer. TSA solutions were prepared at 0.4 wt % in deionized water, further purified with a Milli-Q ultrapure filtration system (Millipore Corp.). The data for surface tension vs time (milliseconds) was plotted and then the surface tension was calculated from a trend line to generate surface tension data at 75, 100, 150 and 200 milliseconds (mSec).

Dynamic Surface Tension, IFDT 75 mSec ([1]; calculated from trend line at 75 mSec): 49.5 mN/m | Dynamic Surface Tension, IFDT 100 mSec ([1]; calculated from trend line at 100 mSec): 47.6 mN/m | Dynamic Surface Tension, IFDT 150 mSec ([1]; calculated from trend line at 150 mSec): 43.9 mN/m | Dynamic Surface Tension, IFDT 200 mSec ([1]; calculated from trend line at 200 mSec): 40.1 mN/m
SMILES: C[Si](C)(C)O[Si](C)(CCCOCCOCCOCCOCCOCCOCCOCCOCCO)O[Si](C)(C)C [TSA-1-B]
Uptake (%) Observed (bean leaf (Vicia faba); ^14C-glyphosate into bean, 0.4% TSA adjuvant, 10 minutes after application): 79.3 ab % and 90.2 a % and 88.0 ab % and 85.9 a % | Uptake (%) Predicted (bean leaf (Vicia faba); weighted average of the components, 0.4% adjuvant, 10 minutes): 79.3% and 90.2% and 88.0% and 85.9%

From patent publication US20210029991A1, “TRISILOXANE ALKOXYLATE COMPOSITIONS” (Momentive Performance Materials Inc., priority 2018, published 2021)
